Measured values from the NIST ThermoML archive (doi:10.1016/j.jct.2008.02.020).
± gives the expanded uncertainty stated by the source.

Conditions: Liquid, Buoyancy - hydrostatic balance with magnetic suspension - one sinker

Cc1ccc(Cl)cc1Cl [1,3-dichloro-4-methylbenzene]
Conditions | mass density [kg/m3]
263.15 K, 97.86 kPa | 1280.75 ± 1.5
263.15 K, 1123.9 kPa | 1281.41 ± 1.5
263.15 K, 2150.1 kPa | 1282.08 ± 1.5
263.15 K, 3971.8 kPa | 1283.26 ± 1.5
263.15 K, 6167.5 kPa | 1284.65 ± 1.5
263.15 K, 7898.5 kPa | 1285.75 ± 1.5
263.15 K, 9974.7 kPa | 1287.06 ± 1.5
273.15 K, 101.87 kPa | 1270.26 ± 1.5
273.15 K, 1168.7 kPa | 1270.98 ± 1.5
273.15 K, 2038.5 kPa | 1271.57 ± 1.5
273.15 K, 4184.1 kPa | 1273.02 ± 1.5
273.15 K, 5901.9 kPa | 1274.17 ± 1.5
273.15 K, 7917 kPa | 1275.5 ± 1.5
273.15 K, 10080 kPa | 1276.92 ± 1.5
273.15 K, 11859 kPa | 1278.07 ± 1.5
273.15 K, 14024 kPa | 1279.46 ± 1.5
273.15 K, 16108 kPa | 1280.79 ± 1.5
273.15 K, 17842 kPa | 1281.88 ± 1.5
273.15 K, 20076 kPa | 1283.28 ± 1.5
273.15 K, 22132 kPa | 1284.55 ± 1.5
273.15 K, 24150 kPa | 1285.79 ± 1.5
273.15 K, 26076 kPa | 1286.95 ± 1.5
273.15 K, 27913 kPa | 1288.06 ± 1.5
273.15 K, 29994 kPa | 1289.3 ± 1.5
293.15 K, 97.54 kPa | 1249.31 ± 1.4
293.16 K, 1126.7 kPa | 1250.08 ± 1.4
293.17 K, 1886.8 kPa | 1250.65 ± 1.4
293.18 K, 4191.9 kPa | 1252.36 ± 1.4
293.19 K, 6062.4 kPa | 1253.73 ± 1.4
293.2 K, 7970.1 kPa | 1255.11 ± 1.4
293.21 K, 10165 kPa | 1256.68 ± 1.4
293.22 K, 12144 kPa | 1258.09 ± 1.4
293.23 K, 14101 kPa | 1259.46 ± 1.4
293.24 K, 16101 kPa | 1260.85 ± 1.4
293.25 K, 18110 kPa | 1262.23 ± 1.4
293.26 K, 20077 kPa | 1263.55 ± 1.4
293.27 K, 22136 kPa | 1264.94 ± 1.4
293.28 K, 24103 kPa | 1266.25 ± 1.4
293.29 K, 25962 kPa | 1267.48 ± 1.4
293.3 K, 27896 kPa | 1268.74 ± 1.4
293.31 K, 29829 kPa | 1270 ± 1.5
313.15 K, 107.85 kPa | 1228.39 ± 1.4
313.15 K, 1095.7 kPa | 1229.21 ± 1.4
313.15 K, 2082.7 kPa | 1230.02 ± 1.4
313.15 K, 4107.2 kPa | 1231.67 ± 1.4
313.15 K, 5854.6 kPa | 1233.08 ± 1.4
313.15 K, 8123.1 kPa | 1234.89 ± 1.4
313.15 K, 10162 kPa | 1236.49 ± 1.4
313.15 K, 12124 kPa | 1238.01 ± 1.4
313.15 K, 13892 kPa | 1239.36 ± 1.4
313.15 K, 16106 kPa | 1241.04 ± 1.4
313.15 K, 18086 kPa | 1242.52 ± 1.4
313.15 K, 20144 kPa | 1244.04 ± 1.4
313.15 K, 22020 kPa | 1245.42 ± 1.4
313.15 K, 24014 kPa | 1246.86 ± 1.4
313.15 K, 25938 kPa | 1248.23 ± 1.4
313.15 K, 27776 kPa | 1249.54 ± 1.4
313.15 K, 29828 kPa | 1250.98 ± 1.4
333.15 K, 101.71 kPa | 1207.38 ± 1.3
333.15 K, 1081.7 kPa | 1208.28 ± 1.3
333.15 K, 1877.8 kPa | 1209 ± 1.3
333.15 K, 3933.1 kPa | 1210.85 ± 1.3
333.15 K, 5993.1 kPa | 1212.68 ± 1.3
333.15 K, 8164.3 kPa | 1214.58 ± 1.3
333.15 K, 10140 kPa | 1216.29 ± 1.3
333.15 K, 12129 kPa | 1217.98 ± 1.3
333.15 K, 14157 kPa | 1219.68 ± 1.3
333.15 K, 16129 kPa | 1221.31 ± 1.3
333.15 K, 18148 kPa | 1222.96 ± 1.4
333.15 K, 20046 kPa | 1224.49 ± 1.4
333.15 K, 22094 kPa | 1226.12 ± 1.4
333.15 K, 24026 kPa | 1227.64 ± 1.4
333.15 K, 25826 kPa | 1229.04 ± 1.4
333.15 K, 27856 kPa | 1230.61 ± 1.4
333.15 K, 29702 kPa | 1232.01 ± 1.4
353.15 K, 101.05 kPa | 1186.2 ± 1.3
353.15 K, 1224 kPa | 1187.34 ± 1.3
353.15 K, 2054.2 kPa | 1188.18 ± 1.3
353.15 K, 4178 kPa | 1190.3 ± 1.3
353.15 K, 6020.6 kPa | 1192.11 ± 1.3
353.15 K, 8131.5 kPa | 1194.14 ± 1.3
353.15 K, 10113 kPa | 1196.02 ± 1.3
353.15 K, 12081 kPa | 1197.87 ± 1.3
353.15 K, 14118 kPa | 1199.74 ± 1.3
353.15 K, 16085 kPa | 1201.53 ± 1.3
353.15 K, 18058 kPa | 1203.29 ± 1.3
353.15 K, 19980 kPa | 1204.98 ± 1.3
353.15 K, 22046 kPa | 1206.78 ± 1.3
353.15 K, 24056 kPa | 1208.5 ± 1.3
353.15 K, 26025 kPa | 1210.17 ± 1.3
353.15 K, 27872 kPa | 1211.71 ± 1.3
353.15 K, 29804 kPa | 1213.32 ± 1.3
373.15 K, 99.43 kPa | 1164.78 ± 1.2
373.15 K, 1084.4 kPa | 1165.89 ± 1.2
373.15 K, 1956.5 kPa | 1166.87 ± 1.2
373.15 K, 4135.4 kPa | 1169.29 ± 1.2
373.15 K, 5954.6 kPa | 1171.27 ± 1.2
373.15 K, 7981.3 kPa | 1173.43 ± 1.2
373.15 K, 10128 kPa | 1175.67 ± 1.3
373.15 K, 11936 kPa | 1177.54 ± 1.3
373.15 K, 14002 kPa | 1179.62 ± 1.3
373.15 K, 15987 kPa | 1181.6 ± 1.3
373.15 K, 18116 kPa | 1183.68 ± 1.3
373.15 K, 19990 kPa | 1185.5 ± 1.3
373.15 K, 22002 kPa | 1187.4 ± 1.3
373.15 K, 23973 kPa | 1189.24 ± 1.3
373.15 K, 26011 kPa | 1191.11 ± 1.3
373.15 K, 28050 kPa | 1192.96 ± 1.3
373.15 K, 29922 kPa | 1194.64 ± 1.3
393.15 K, 100.49 kPa | 1143.03 ± 1.2
393.15 K, 1179.5 kPa | 1144.4 ± 1.2
393.15 K, 1991.5 kPa | 1145.42 ± 1.2
393.15 K, 3926.6 kPa | 1147.8 ± 1.2
393.15 K, 5963.8 kPa | 1150.27 ± 1.2
393.15 K, 7963.7 kPa | 1152.64 ± 1.2
393.15 K, 10152 kPa | 1155.17 ± 1.2
393.15 K, 12148 kPa | 1157.43 ± 1.2
393.15 K, 14137 kPa | 1159.65 ± 1.2
393.15 K, 16116 kPa | 1161.81 ± 1.2
393.15 K, 17917 kPa | 1163.75 ± 1.2
393.15 K, 20141 kPa | 1166.09 ± 1.2
393.15 K, 22096 kPa | 1168.12 ± 1.2
393.15 K, 24174 kPa | 1170.23 ± 1.2
393.15 K, 26160 kPa | 1172.22 ± 1.2
393.15 K, 27968 kPa | 1174 ± 1.2
393.15 K, 29927 kPa | 1175.92 ± 1.3
413.15 K, 100.59 kPa | 1120.92 ± 1.1
413.15 K, 1151.6 kPa | 1122.41 ± 1.1
413.15 K, 2145.3 kPa | 1123.81 ± 1.2
413.15 K, 3981.3 kPa | 1126.35 ± 1.2
413.15 K, 6146.6 kPa | 1129.27 ± 1.2
413.15 K, 8164.1 kPa | 1131.92 ± 1.2
413.15 K, 10060 kPa | 1134.35 ± 1.2
413.15 K, 11927 kPa | 1136.7 ± 1.2
413.15 K, 14145 kPa | 1139.43 ± 1.2
413.15 K, 16150 kPa | 1141.84 ± 1.2
413.15 K, 18124 kPa | 1144.17 ± 1.2
413.15 K, 20124 kPa | 1146.49 ± 1.2
413.15 K, 22139 kPa | 1148.77 ± 1.2
413.15 K, 24073 kPa | 1150.92 ± 1.2
413.15 K, 26091 kPa | 1153.13 ± 1.2
413.15 K, 29979 kPa | 1157.28 ± 1.2
433.15 K, 95.11 kPa | 1098.16 ± 1.1
433.15 K, 1136.7 kPa | 1099.85 ± 1.1
433.15 K, 2147.7 kPa | 1101.45 ± 1.1
433.15 K, 3917.8 kPa | 1104.21 ± 1.1
433.15 K, 6150.5 kPa | 1107.59 ± 1.1
433.15 K, 8148.5 kPa | 1110.53 ± 1.1
433.15 K, 10046 kPa | 1113.26 ± 1.1
433.15 K, 12142 kPa | 1116.17 ± 1.1
433.15 K, 14151 kPa | 1118.91 ± 1.1
433.15 K, 16187 kPa | 1121.62 ± 1.1
433.15 K, 18165 kPa | 1124.19 ± 1.2
433.15 K, 20168 kPa | 1126.73 ± 1.2
433.15 K, 22138 kPa | 1129.18 ± 1.2
433.15 K, 24093 kPa | 1131.56 ± 1.2
433.15 K, 26057 kPa | 1133.91 ± 1.2
433.15 K, 28003 kPa | 1136.2 ± 1.2
433.15 K, 29939 kPa | 1138.43 ± 1.2
453.15 K, 1198.5 kPa | 1076.81 ± 1.1
453.15 K, 2151.7 kPa | 1078.53 ± 1.1
453.15 K, 4164.4 kPa | 1082.08 ± 1.1
453.15 K, 6169.6 kPa | 1085.47 ± 1.1
453.15 K, 8024.4 kPa | 1088.53 ± 1.1
453.15 K, 10086 kPa | 1091.85 ± 1.1
453.15 K, 12119 kPa | 1094.99 ± 1.1
453.15 K, 14144 kPa | 1098.05 ± 1.1
453.15 K, 16087 kPa | 1100.89 ± 1.1
453.15 K, 19984 kPa | 1106.47 ± 1.1
453.15 K, 22044 kPa | 1109.28 ± 1.1
453.15 K, 24087 kPa | 1112.01 ± 1.1
453.15 K, 26125 kPa | 1114.68 ± 1.1
453.15 K, 28000 kPa | 1117.08 ± 1.1
453.15 K, 29897 kPa | 1119.49 ± 1.1
473.15 K, 1132.5 kPa | 1052.66 ± 1
473.15 K, 2054.3 kPa | 1054.57 ± 1
473.15 K, 4181.9 kPa | 1058.81 ± 1
473.15 K, 5970.9 kPa | 1062.27 ± 1
473.15 K, 8153.5 kPa | 1066.34 ± 1
473.15 K, 10138 kPa | 1069.91 ± 1.1
473.15 K, 12109 kPa | 1073.33 ± 1.1
473.15 K, 14125 kPa | 1073.33 ± 10
473.15 K, 16133 kPa | 1080.01 ± 1.1
473.15 K, 18132 kPa | 1083.19 ± 1.1
473.15 K, 20147 kPa | 1086.3 ± 1.1
473.15 K, 22083 kPa | 1089.22 ± 1.1
473.15 K, 24078 kPa | 1092.15 ± 1.1
473.15 K, 26043 kPa | 1094.96 ± 1.1
473.15 K, 27886 kPa | 1097.55 ± 1.1
473.15 K, 29893 kPa | 1100.31 ± 1.1
